US11179424B2, “Hyaluronic acid production promoting agent” (Pharma Foods International Co., Ltd., priority 2015, dated 2021)

Experiments:
[1] = test system: mouse chondrogenic cell line ATDC5; assay: Cartilage matrix production by chondrogenic cells, Alcian blue (Test Example 6); type: cell-based; conditions: 500 μM, insulin 0.1 μg/mL, 14 days, FIG. 19
Method: The mouse chondrogenic cell line ATDC5 (RIKEN BRC No. RCB0565) was cultured until subconfluence at 37° C. in an atmosphere of 5 vol % CO2 and 95 vol % air in DMEM/F-12 medium supplemented with 5% (w/w) FBS, 1% (w/w) penicillin-streptomycin solution, 5 μg/mL transferrin, and 3×10^−8M sodium selenite. The cells were collected by trypsin treatment. The collected cells were suspended in fresh DMEM/F-12 medium with the same supplements as above to give a cell suspension (50×10^4 cells/mL). The cell suspension was spot-seeded at a volume of 20 μL in each well of a 24-well plate, and the cells were precultured at 37° C. in an atmosphere of 5 vol % CO2 and 95 vol % air for 3 hours. The medium in each well was replaced with fresh DMEM/F-12 medium containing the same supplements as above and the Phe-Hyp dipeptide (at a final concentration of 500 μM) and insulin (at a final concentration of 0.1 μg/mL), and the cells were cultured for 14 days. The cartilage matrix produced by the chondrogenic cells was stained with Alcian blue staining solution, the stained cartilage matrix was quantified with Image J (National Institutes of Health), and the results were evaluated. The amount of the cartilage matrix produced by the chondrogenic cells in the sample addition group was expressed in terms of a relative value, with the amount of the cartilage matrix in the no sample group taken as 100.

SOX9 mRNA in ATDC5 = assay: Cartilage differentiation-related gene expression in chondrogenic cells: SOX9 (Test Example 7); type: cell-based, mouse; conditions: 500 μM, insulin 0.1 μg/mL, 3 days, normalized to GAPDH, FIG. 20
Method: (§1) The mouse chondrogenic cell line ATDC5 (RIKEN BRC No. RCB0565) was cultured until subconfluence at 37° C. in an atmosphere of 5 vol % CO2 and 95 vol % air in DMEM/F-12 medium supplemented with 5% (w/w) FBS, 1% (w/w) penicillin-streptomycin solution, 5 μg/mL transferrin, and 3×10^−8 M sodium selenite. The cells were collected by trypsin treatment. The collected cells were suspended in fresh DMEM/F-12 medium with the same supplements as above to give a cell suspension (10×10^4 cells/mL). The cell suspension was seeded at a volume of 500 μL in each well of a 24-well plate, and the cells were precultured at 37° C. in an atmosphere of 5 vol % CO2 and 95 vol % air for 2 days. The medium in each well was replaced with fresh DMEM/F-12 medium containing the same supplements as above and the Phe-Hyp dipeptide (at a final concentration of 500 μM) and insulin (at a final concentration of 0.1 μg/mL), and the cells were cultured for 3 days. As a positive control, 10 μg/mL insulin was used. At end of culture, total RNA extraction and cDNA synthesis were performed, the relative mRNA expression levels of cartilage differentiation-related genes were quantified by real-time PCR and were normalized to the GAPDH mRNA expression level, and the results were evaluated. […]

Acan mRNA in ATDC5 = assay: Cartilage differentiation-related gene expression in chondrogenic cells: Acan (Test Example 7); type: cell-based, mouse; conditions: 500 μM, insulin 0.1 μg/mL, 3 days, normalized to GAPDH, FIG. 21
Method: as §1

Col X mRNA in ATDC5 = assay: Cartilage differentiation-related gene expression in chondrogenic cells: Col X (Test Example 7); type: cell-based, mouse; conditions: 500 μM, insulin 0.1 μg/mL, 3 days, normalized to GAPDH, FIG. 22
Method: as §1

has2 mRNA in ATDC5 = assay: Cartilage differentiation-related gene expression in chondrogenic cells: has2 (Test Example 7); type: cell-based, mouse; conditions: 500 μM, insulin 0.1 μg/mL, 3 days, normalized to GAPDH, FIG. 23
Method: as §1

[2] = test system: ex vivo mouse knee joints; assay: Ex vivo hyaluronic acid production in knee joints of mice (Test Example 8); conditions: 1 mg/mL, one day incubation, ELISA, FIG. 24
Method: DMEM/F-12 medium supplemented with 1 mg/mL Phe-Hyp dipeptide, 5% (w/w) FBS, 1% (w/w) penicillin-streptomycin solution, 5 μg/mL transferrin, and 3×10^−8 M sodium selenite was added to each well of a 24-well plate at a volume of 1 mL per well. The femur and tibia were harvested from the right and left hind legs of ddY mice (female, retired). The synovial membrane was incised to expose the cartilage, and the bones were placed in each well so that only the joint was immersed in the medium. The bones were incubated at 37° C. in an atmosphere of 5 vol % CO2 and 95 vol % air for one day. At end of incubation, the supernatants were recovered and centrifuged at 1500×g at 4° C. for 30 minutes. The supernatants were recovered, the amount of hyaluronic acid was measured by ELISA and the results were evaluated. The amount of the hyaluronic acid in the sample addition group was expressed in terms of a relative value, with the amount of hyaluronic acid in the no sample group taken as 100.

For `N[C@@H](Cc1ccccc1)C(=O)N1CC(O)C[C@H]1C(=O)O` (stereo partly drawn) [Phe-Hyp dipeptide, phenylalanyl-4-hydroxyproline], the “cartilage matrix production by chondrogenic cells (Alcian blue)” value [1] was “promoted cartilage matrix production”, the “SOX9 mRNA expression level” value (SOX9 mRNA in ATDC5) was “enhanced the expression” and the “Acan mRNA expression level” value (Acan mRNA in ATDC5) was “enhanced the expression”. For the same molecule, the “Col X mRNA expression level” value (Col X mRNA in ATDC5) was “enhanced the expression”, the “has2 mRNA expression level” value (has2 mRNA in ATDC5) was “enhanced the expression” and the “amount of hyaluronic acid produced in ex vivo mouse knee joints” value [2] was “promoted ex vivo hyaluronic acid production”.
